Consider five molecules from paper PMC10160982 (Proceedings of the National Academy of Sciences of the …, 2023).

Experiment [1] addresses PDE4 (catalytic domain of human PDE4D) (Homo sapiens, UniProt Q08499). The experiment is described as follows: PDE4 inhibition assay. The format is biochemical.
The target in experiment [2] is SARS-CoV-2 polymerase complex (RdRp; nsp12, nsp7-nsp8) (Severe acute respiratory syndrome coronavirus 2, UniProt P0DTD1). The experiment is described as follows: biochemical. As to conditions: RdRp inhibition IC50, in vitro polymerase activity assay.
Another experiment has as its system SARS-CoV-2-trVLPs. The format is cell-based, SARS-CoV-2 (Wuhan-Hu-1 strain). As to conditions: ratio of CC50 to antiviral EC50, Caco-2-N cells.
In experiment [3] the test system is SARS-CoV-2-induced IL-1β P17 release in Calu-3 cells. The format is cell-based.
The test system of experiment [4] is secretion of the matured form of IL-1β (P17) in SFTSV-infected THP-1 macrophages. The experiment is described as follows: cells. The format is cell-based. As to conditions: for inhibition at 10 µM: Homo sapiens, THP-1, 48 h, read-out: inhibition rate of IL-1β (P17) secretion.

Chain of PDE4 (catalytic domain of human PDE4D) (Q08499 388-715): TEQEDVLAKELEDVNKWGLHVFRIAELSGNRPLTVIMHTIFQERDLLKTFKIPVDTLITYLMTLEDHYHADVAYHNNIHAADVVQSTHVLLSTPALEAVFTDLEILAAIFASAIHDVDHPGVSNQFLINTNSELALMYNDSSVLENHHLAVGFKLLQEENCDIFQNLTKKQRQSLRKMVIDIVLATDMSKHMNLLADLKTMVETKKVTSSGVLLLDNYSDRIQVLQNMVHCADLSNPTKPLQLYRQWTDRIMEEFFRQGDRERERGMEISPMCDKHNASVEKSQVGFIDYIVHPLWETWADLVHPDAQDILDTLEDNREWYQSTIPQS

One may read the IC50 as the midpoint of a concentration-inhibition curve. Low readings indicate greater potency in that assay, high ones weaker potency in that assay. In general, inhibition refers to the change of the read-out against control, counted positive when it falls. As for `CC(C)=CCc1cc(-c2coc3cc(O)cc(O)c3c2=O)cc(O)c1O` [Glycyrrhisoflavone], in experiment [1], half-maximal inhibition (IC50) was put at 1.29 µM. This molecule showed an IC50 in experiment [2] of 28.9 µM. Moreover, in the experiment on SARS-CoV-2-trVLPs, the “selectivity index (SI = CC50/EC50)” value was more than 5.0. In addition, the “reduction of SARS-CoV-2-induced IL-1β P17 release, dose dependence” value in experiment [3] was “dose-dependent effects”. In addition, in experiment [4], the “anti-inflammation activity (inhibition of P17 secretion), dose dependence” value is on record as “dose-dependent manner” and the inhibition at 10 µM is more than 90%.
For `C=CCc1ccc(O)c(-c2cc(CC=C)ccc2O)c1` [Magnolol], in the experiment with SARS-CoV-2-trVLPs, the “selectivity index (SI = CC50/EC50)” value is more than 5.0.
`O=c1c(O)c(-c2ccc(O)c(O)c2)oc2cc(O)cc(O)c12` [Quercetin] yielded an IC50 in experiment [1] of 17.4 µM. For the same molecule, the “selectivity index (SI = CC50/EC50)” value in the experiment with SARS-CoV-2-trVLPs is more than 5.0.
In the case of `COc1cc(O)ccc1/C=C/C(=O)c1ccc(O)cc1` [Echinatin], in the experiment on SARS-CoV-2-trVLPs, the “selectivity index (SI = CC50/EC50)” value is more than 5.0. For the same molecule, in experiment [3], the “reduction of SARS-CoV-2-induced IL-1β P17 release, dose dependence” value is given as “dose-dependent effects”. Also, in experiment [4], the “anti-inflammation activity (inhibition of P17 secretion), dose dependence” value is listed as “dose-dependent manner” and the inhibition at 10 µM is more than 90%.
As for `Cc1cc(O)c2c(c1)C(=O)c1cc(O)cc(O)c1C2=O` [Emodin], the “selectivity index (SI = CC50/EC50)” value in the experiment on SARS-CoV-2-trVLPs is listed as more than 5.0.
